# Measured values reported in patent publication US20210198277A1, “AMINE-SUBSTITUTED ARYL OR HETEROARYL COMPOUNDS” (Epizyme, Inc., priority 2016, published 2021).
# Molecular target: T1, EHMT2 (Homo sapiens, UniProt Q96KQ7)
# T1 construct: host or cells: MDA-MB-231
# T1 sequence (Q96KQ7 1-1210): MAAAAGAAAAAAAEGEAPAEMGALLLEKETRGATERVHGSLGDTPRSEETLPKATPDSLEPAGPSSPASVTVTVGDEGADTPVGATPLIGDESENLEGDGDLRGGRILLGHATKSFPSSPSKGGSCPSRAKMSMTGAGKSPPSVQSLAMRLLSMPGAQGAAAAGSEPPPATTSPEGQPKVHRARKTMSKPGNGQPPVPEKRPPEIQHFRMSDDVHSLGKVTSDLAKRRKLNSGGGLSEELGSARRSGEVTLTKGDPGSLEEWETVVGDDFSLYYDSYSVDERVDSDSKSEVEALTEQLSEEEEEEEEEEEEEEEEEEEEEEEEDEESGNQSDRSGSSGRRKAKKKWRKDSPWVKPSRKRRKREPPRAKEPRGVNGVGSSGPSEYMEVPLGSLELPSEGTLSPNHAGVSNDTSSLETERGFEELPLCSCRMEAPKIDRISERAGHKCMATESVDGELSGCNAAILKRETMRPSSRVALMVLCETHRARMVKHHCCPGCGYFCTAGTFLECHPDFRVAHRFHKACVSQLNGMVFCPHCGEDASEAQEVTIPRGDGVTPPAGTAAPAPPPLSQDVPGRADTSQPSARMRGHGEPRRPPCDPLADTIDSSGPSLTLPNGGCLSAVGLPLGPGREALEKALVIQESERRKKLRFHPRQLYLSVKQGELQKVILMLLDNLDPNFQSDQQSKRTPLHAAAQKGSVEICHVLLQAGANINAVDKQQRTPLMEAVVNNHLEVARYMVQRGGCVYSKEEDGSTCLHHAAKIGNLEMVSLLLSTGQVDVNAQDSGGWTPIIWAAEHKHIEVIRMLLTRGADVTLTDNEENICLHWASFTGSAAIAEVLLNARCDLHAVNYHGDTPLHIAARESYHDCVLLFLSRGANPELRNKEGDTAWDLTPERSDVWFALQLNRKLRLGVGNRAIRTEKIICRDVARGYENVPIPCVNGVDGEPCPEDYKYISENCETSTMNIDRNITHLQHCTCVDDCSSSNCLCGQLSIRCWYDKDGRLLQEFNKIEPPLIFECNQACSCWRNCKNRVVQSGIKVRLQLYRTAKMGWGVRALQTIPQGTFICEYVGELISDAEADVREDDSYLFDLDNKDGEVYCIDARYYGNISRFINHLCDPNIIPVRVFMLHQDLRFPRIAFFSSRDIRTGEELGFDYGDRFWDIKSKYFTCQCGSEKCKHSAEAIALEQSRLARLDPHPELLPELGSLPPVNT
# Experiment: MDA-MB-231 H3K9me2 in-cell Western assay (EHMT2 ICW)
# Format: cell-based
# Conditions: Table VI; read-out: EHMT2 ICW IC50
# Summary of the method: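 Infrared read-out at 800 and 700 nm (H3K9me2 antibody vs DRAQ5 DNA stain) of fixed MDA-MB-231 cells after 48 h compound treatment at 37 °C. Well ratios were converted to percent inhibition, and IC50 was obtained by variable-slope nonlinear regression on triplicates.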
row,Structure (SMILES),IC50
1,"CNc1cc(C)nc(Nc2ccc(OC)c(OCC(O)CN3CCCC3)c2)n1 (stereo in doubt) [Compound 906, (2S)-1-(2-methoxy-5-[[4-methyl-6-(methylamino)pyrimidin-2-yl]amino]phenoxy)-3-(pyrrolidin-1-yl)propan-2-ol]",100 to 1000 nM
2,COc1cnc(Nc2cccc3[nH]nnc23)cc1OCCCN1CCCC1 [Compound 619],> 10000 nM
3,CCN1CC(COc2cc(Nc3cccn4cnnc34)ncc2OC)C1 [Compound 620],> 10000 nM
4,CNc1cc(C)nc(Nc2c[nH]c(=O)c(OCCCN3CCCC3)c2)n1 [Compound 621],> 10000 nM
5,CNc1cc(C)nc(Nc2cc(OCCCN3CCCC3)c3nncn3c2)n1 [Compound 622],> 10000 nM
6,CNc1cc(C)nc(Nc2cc(OCCCN3CCCC3)c3ncnn3c2)n1 [Compound 623],1000 to 10000 nM
7,CNc1cc(C)nc(Nc2cc(OCCCN3CCCC3)c3[nH]nnc3c2)n1 [Compound 624],1000 to 10000 nM
8,COc1cc2c(C3CCN(C)CC3)cc(N3CCCC3)nc2cc1OCCCN1CCCC1 [Compound 625],100 to 1000 nM
9,COc1cc2c(C3CCN([C@H]4CCOC4)CC3)cc(C)nc2cc1OCCCN1CCCC1 [Compound 864],100 to 1000 nM
10,CCNc1cc(C2CCOCC2)c2cc(OC)c(OCCCN3CCCC3)cc2n1 [Compound 865],100 to 1000 nM
11,CNc1cc(C2CCN([C@@H]3CCOC3)CC2)c2cc(OC)c(OCCCN3CCCC3)cc2n1 [Compound 866],< 100 nM
12,CNc1cc(C2CCN([C@H]3CCOC3)CC2)c2cc(OC)c(OCCCN3CCCC3)cc2n1 [Compound 867],< 100 nM
13,COc1ccc(Nc2nc(C)cc(C3CCOCC3)n2)cc1OCCCN1CCCC1 [Compound 870],> 10000 nM
14,CNc1cc(C)nc(Nc2ccc(OC)c(C(=O)NCc3ccccc3)c2)n1 [Compound 871],> 10000 nM
15,CNc1cc(C)nc(Nc2ccc(OC)c(C(=O)NC3CCN(C)CC3)c2)n1 [Compound 873],> 10000 nM
16,CNc1cc(C)nc(Nc2ccc(CNC(=O)c3ccccc3)c(OC)c2)n1 [Compound 876],> 10000 nM
17,CNc1cc(C)nc(Nc2ccc(C(=O)NCc3ccccc3)c(OC)c2)n1 [Compound 877],> 10000 nM
18,CNc1cc(C)nc(Nc2cnc(OC)c(OC[C@@H](O)CN3CCCC3)c2)n1 [Compound 881],100 to 1000 nM
19,CNc1cc(C)nc(Nc2cnc(OC)c(OC[C@H](O)CN3CCCC3)c2)n1 [Compound 882],1000 to 10000 nM
20,COc1ncc(Nc2nc(C)cc(NCC3COC3)n2)cc1OC[C@@H](O)CN1CCCC1 [Compound 883],> 10000 nM
21,COc1ncc(Nc2nc(C)cc(NCC3COC3)n2)cc1OC[C@H](O)CN1CCCC1 [Compound 884],> 10000 nM
22,CNc1cc(C)nc(Nc2cc(OC[C@@H](O)CN3CCCC3)c(OC)cn2)n1 [Compound 885],> 10000 nM
23,CNc1cc(C)nc(Nc2cc(OC[C@H](O)CN3CCCC3)c(OC)cn2)n1 [Compound 886],> 10000 nM
24,CNC(=O)CCNc1cc(C)nc(Nc2cnc(OC)c(OCCCN3CCCC3)c2)n1 [Compound 887],1000 to 10000 nM

row,Structure (SMILES),IC50
1,CNC(=O)N1CC(CNc2cc(C)nc(Nc3cnc(OC)c(OCCCN4CCCC4)c3)n2)C1 [Compound 888],> 10000 nM
2,CNc1cc(C)nc(Nc2ccc(OC)c(OCCCc3nc(Cl)c[nH]3)c2)n1 [Compound 890],> 10000 nM
3,CNc1cc(C)nc(Nc2ccc(OC)c(OCCCc3nc(Cl)cn3C)c2)n1 [Compound 891],> 10000 nM
4,CNS(=O)(=O)CCNc1cc(C)nc(Nc2ccc(OC)c(OCCCN3CCCC3)c2)n1 [Compound 892],1000 to 10000 nM
5,COc1ccc(Nc2nc(C)cc(NCCS(=O)(=O)N(C)C)n2)cc1OCCCN1CCCC1 [Compound 893],100 to 1000 nM
6,COc1cnc(Nc2cc(NCC3COC3)cnn2)cc1OCCCN1CCCC1 [Compound 894],> 10000 nM
7,COc1cc2cc(C#N)c(C)nc2cc1OCCCN1CCCC1 [Compound 895],> 10000 nM
8,COc1cc2cc(F)c(C)nc2cc1OCCCN1CCCC1 [Compound 896],> 10000 nM
9,CNc1nc2cc(OCCCN3CCCC3)c(OC)cc2cc1F [Compound 897],> 10000 nM
10,CNC(=O)C1CCN(c2cc3nc(NC)cc(C)c3cc2OC)C1 (stereo not shown) [Compound 900],100 to 1000 nM
11,CNc1cc(C2CCOCC2)c2cc(OC)c(OCCCN3CC(O)C3)cc2n1 [Compound 902],100 to 1000 nM
12,CNc1nc2cc(OCCCN3CCCC3)c(OC)cc2cc1Cl [Compound 903],1000 to 10000 nM
13,CNc1cc(C)nc(Nc2ccc(OC)c(C#CCN3CCOCC3)c2)n1 [Compound 904],> 10000 nM
14,CNc1cc(C)nc(Nc2ccc(OC)c(OC[C@@H](O)CN3CCCC3)c2)n1 [Compound 905],100 to 1000 nM
15,CNc1ccnc(Nc2ccc(OC)c(OC[C@@H](O)CN3CCC3)c2)n1 [Compound 907],1000 to 10000 nM
16,CNc1ccnc(Nc2ccc(OC)c(OC[C@H](O)CN3CCC3)c2)n1 [Compound 908],100 to 1000 nM
17,CNc1ccnc(Nc2cnc(OC)c(OC[C@@H]3CCN(C)C3)c2)n1 [Compound 912],100 to 1000 nM
18,CNc1ccnc(Nc2cnc(OC)c(OCCCN3CCC3)c2)n1 [Compound 914],100 to 1000 nM
19,CNCCCOc1cc(Nc2nccc(NC)n2)ccc1OC [Compound 916],1000 to 10000 nM
20,CNCCCOc1cc(Nc2nccc(NC)n2)cnc1OC [Compound 917],1000 to 10000 nM
21,CNC[C@@H](O)COc1cc(Nc2nccc(NC)n2)cnc1OC [Compound 918],1000 to 10000 nM
22,CNc1ccnc(Nc2ccc(OC)c(OC[C@@H](CN3CCCC3)OC)c2)n1 [Compound 919],> 10000 nM
23,CNc1ccnc(Nc2ccc(OC)c(OC[C@H](CN3CCCC3)OC)c2)n1 [Compound 920],100 to 1000 nM
24,CNC[C@H](COc1cc(Nc2nccc(NC)n2)ccc1OC)OC [Compound 921],> 10000 nM

row,Structure (SMILES),IC50
1,CNC[C@@H](COc1cc(Nc2nccc(NC)n2)ccc1OC)OC [Compound 922],> 10000 nM
2,CCN1CC[C@@H](COc2cc(Nc3nccc(NC)n3)ccc2OC)C1 [Compound 927],100 to 1000 nM
3,CNc1ccnc(Nc2ccc(OC)c(OC[C@@H]3CCN(C4CC4)C3)c2)n1 [Compound 928],< 100 nM
4,CNc1ccnc(Nc2ccc(OC)c(OC[C@H]3CN(C)CCO3)c2)n1 [Compound 931],> 10000 nM
5,CCN1CCO[C@@H](COc2cc(Nc3nccc(NC)n3)ccc2OC)C1 [Compound 932],> 10000 nM
6,CNc1ccnc(Nc2ccc(OC)c(OC[C@H]3CNCCO3)c2)n1 [Compound 933],> 10000 nM
7,CNc1ccnc(Nc2ccc(OC)c(OC[C@@H]3CN(C)CCO3)c2)n1 [Compound 936],> 10000 nM
8,CCN1CCO[C@H](COc2cc(Nc3nccc(NC)n3)ccc2OC)C1 [Compound 937],> 10000 nM
9,CNc1ccnc(Nc2ccc(OC)c(OC[C@@H]3CNCCO3)c2)n1 [Compound 938],> 10000 nM
10,CNc1ccnc(Nc2ccc(OC)c(OC[C@@H](C)CN3CCC3)c2)n1 [Compound 943],1000 to 10000 nM
11,CNc1ccnc(Nc2ccc(OC)c(OC[C@H](C)CN3CCC3)c2)n1 [Compound 945],100 to 1000 nM
12,CCN1CC[C@@H](COc2cc(Nc3nc(C)cc4[nH]ncc34)ncc2OC)C1 [Compound 947],1000 to 10000 nM
13,CNc1cc(C)nc(Nc2cnc(OC)c(OCCCN3CCC3)c2)n1 [Compound 949],100 to 1000 nM
14,COc1cc2c(C3CCN(C)CC3)nc(N3CCCC3)nc2cc1OCCCN1CC(O)C1 [Compound 950],1000 to 10000 nM
15,CCN1CC(COc2cc3nc(NC)nc(C4CCN(C)CC4)c3cc2OC)C1 [Compound 951],1000 to 10000 nM
16,CNc1nc(C2=CC(C)(C)NC(C)(C)C2)c2cc(OC)c(OCCCN3CCCC3)cc2n1 [Compound 961],> 10000 nM
17,CNc1cc(C)nc(Nc2ccc(OC)c(OC[C@H](O)CNC3CCC3)c2)n1 [Compound 962],1000 to 10000 nM
18,CNc1cc(C)nc(Nc2cnc(OC)c(OC[C@H](O)CN3CCC3)c2)n1 [Compound 963],100 to 1000 nM
19,CNCCNCc1cc(Nc2nc(C)cc(NC)n2)ccc1OC [Compound 964],1000 to 10000 nM
20,CNc1cc(C)nc(Nc2ccc(OC)c(CNCCN3CCC3)c2)n1 [Compound 965],< 100 nM
21,CNc1ccnc(Nc2cnc(OC)c(OC[C@@H]3CCN(C4CCC4)C3)n2)n1 [Compound 974],100 to 1000 nM
22,CNc1cc(C)nc(Nc2ccc(OC)c(OC[C@H](O)CN3CC(C)C3)c2)n1 [Compound 985],100 to 1000 nM
